Reference: US5925618A, “Peptides useful as somatostatin antagonists” (American Cyanamid Company, priority 1998, dated 1999)
Square brackets hold non-standard residues; d marks the D form. Peptide text beside a SMILES is read from it.

Assays:
Male Sprague-Dawley rats = test: Serum growth hormone levels in anaesthetized rats (peptide 1, BIM 23014C); assay type: in vivo, rat
Protocol: Evaluation in anaesthetized rats. Male Sprague-Dawley rats are anaesthetized with Sagatal and fitted so as to allow efficient intravenous treatment with control and test compounds as well as frequent blood sampling. Blood samples are tested for growth hormone (GH) levels by radioimmunoassay. Thirty minutes after the initiation of blood sampling, rats are given 5 μg, 25 μg or 50 μg of peptide 1.

[1] = biological target: T1, S. cerevisiae (yeast) cells expressing SRIF receptors (Rattus norvegicus, UniProt P30680); test: Yeast bioassay for SRIF antagonist activity (LY364 cells growing in response to SRIF, zone of growth inhibition); assay type: cell-based; settings: Sample type 4th iteration; 10 μL of 5 mg/mL on disk, SRIF 10 nM, read after 3 days
T1 construct: expressed in transfected cells; host or cells: S. cerevisiae strain LY364
T1 sequence (P30680 whole entry): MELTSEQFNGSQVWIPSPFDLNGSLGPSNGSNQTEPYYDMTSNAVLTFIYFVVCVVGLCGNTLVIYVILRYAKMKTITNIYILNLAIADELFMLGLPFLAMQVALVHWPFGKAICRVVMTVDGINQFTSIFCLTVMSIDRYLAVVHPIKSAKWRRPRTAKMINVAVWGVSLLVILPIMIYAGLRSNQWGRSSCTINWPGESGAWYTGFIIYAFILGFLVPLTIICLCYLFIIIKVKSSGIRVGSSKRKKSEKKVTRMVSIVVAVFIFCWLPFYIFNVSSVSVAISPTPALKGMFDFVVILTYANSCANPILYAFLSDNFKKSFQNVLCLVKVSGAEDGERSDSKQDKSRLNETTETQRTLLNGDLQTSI
Excerpt: SRIF antagonist assay using S. cerevisiae (yeast) cells expressing SRIF receptors that grow in response to SRIF
Agar plates containing LY364 cells that are growing in the presence of added SRIF are the basis for a sensitive SRIF antagonist assay, whereby zones of growth inhibition result from the addition of SRIF antagonists to the surface of the agar plate (see L. A. Price, et al., Molecular and Cellular Biology, 15, 6188-6195, 1995, incorporated herein by reference).
In this assay, LY364 cells are grown overnight in 2 mL of synthetic complete(SC) medium (3.4 g/L YNB without amino acids and ammonium sulfate, 10 g/L ammonium sulfate and 1.4 g/L CSM-ura-trp) with glucose (2%) and without uracil and tryptophan. These cells are washed and cultured for 4 to 8 hours in 5 mL of SC medium with lactate (3%) and without uracil and tryptophan, and finally grown overnight in 5 mL of SC medium with galactose (2%) and without uracil and tryptophan. Molten (50° C.) SC agar medium with galactose (2%) and without uracil, tryptophan and histidine is adjusted to pH 6.8 with KOH, mixed with 2×10^4 cells/mL and SRIF (S-14, 10 nM) and poured into square (20×20 cm) petri dishes. Sterile filter disks are placed on the surface of the agar, and saturated with 10 μL of water or DMSO containing 5 mg/mL test peptides. After three days, the plates display a uniform cloudy background of LY264 cells growing in response to the added SRIF. […] This zone is quantified by measuring its diameter (mm), which varies according to the potency of the SRIF antagonist. Those peptides or mixtures of peptides displaying the largest zones of inhibition are further characterized.
Values are compared among samples in the same experiment, as the degree of yeast growth varies somewhat from assay to assay. For the first five sample types, in which progressively less complex mixtures of peptides are found, this assay is the primary determining factor in choosing which samples form the basis of subsequent syntheses.
Plates are read after 3 days. Samples shown in Table I in bold type are chosen for further synthesis. In Table I, all amino acids are D-amino acids and dashes represent undefined amino acid residues.

rat SSTR2 = biological target: T2, rat SSTR2 (Rattus norvegicus, UniProt P30680); test: cAMP accumulation in forskolin-stimulated GH4 C1/SSTR2 cells; assay type: cell-based; settings: GH4-C1; test peptide 2 μM; read-out: cAMP Assay, Intrinsic activity (percent reversal of SSTR2 activation by SRIF or MK678)
T2 construct: expressed in transfected cells; host or cells: GH4C1 rat pituitary tumor cells
T2 sequence (P30680 whole entry): as above
Excerpt: A primary effect of SRIF upon mammalian cells is the reduction of cyclic adenosine 3',5'-monophosphate(cAMP) levels, via inhibition of adenylyl cyclase. This is the basis of a common assay for SRIF agonists and antagonists, whereby SRIF agonists reduce artificially stimulated cAMP levels, and SRIF antagonists reverse the effect of SRIF. The rat pituitary tumor cell line GH4 C1 predominantly expresses SSTR2, and responds to SRIF and to forskolin, a stimulator of adenylate cyclase (see C. M. Eppler, et al., J. Biol. Chem., 267, 15603-15612, 1992, incorporated herein by reference). A highly sensitive assay for SRIF agonists and antagonists results from additionally transfecting GH4 C1 cells with the cloned rat SSTR2, (see L. A. Price, et al., Molecular and Cellular Biology, 15, 6188-6195, 1995, incorporated herein by reference). This increases the response to SRIF and provides a greater dynamic range for the measurement of SRIF antagonist activity.
Stimulation of cells. GH4 C1 /SSTR2 cells, grown in DMEM with 10% bovine serum, are released from a tissue culture dish by incubation for several minutes at 37° C. with PBS containing 0.5 mM EDTA. Cells are washed in induction buffer (PBS containing 100 μM IBMX (an inhibitor of cAMP breakdown) and 2 mM CaCl2) at room temperature, and resuspended at 2×10^6 /mL in induction buffer. Into each well of a 96-well tray are added 50 μL of a 2× concentration of stimulants in induction buffer. These include (at final concentration) 1.25 μM forskolin, 100 nM SRIF or 10 nM of the SSTR2-selective agonist MK678 and test peptides at various concentrations. To initiate stimulation of the cells, 50 μL (100,000) cells are added to each well, mixed by shaking 10 seconds on a plate shaker and placed at 37° C. for 15 minutes. Stimulation is arrested and cells are lysed by adding 15 μL 0.33N HCl to each well and incubating the plate for 30 minutes at 37° C. Samples are neutralized by addition of 15 μL 0.25N NaOH/50 mM Hepes pH 7.4. Baseline cAMP levels are determined in samples with no added forskolin or SRIF, and each treatment is performed in triplicate.
cAMP assay. To measure accumulated cAMP in the samples, a radioimmunoassay is employed. The scintillation proximity assay (SPA, Amersham, Arlington Heights, Ill.) allows the rapid measurement of ^125 I cAMP bound to a specific antibody without separating bound radioligand from free radioligand. Each of the following reagents (50 μL) are added per well in a 96-well tray: supernatants from the cell stimulation; ^125 I cAMP; SPA beads conjugated to monkey anti-rabbit IgG antibodies; and rabbit anti-cAMP antibodies. For the standard curve, known amounts of cAMP (0.2-12.8 pmol) are added in place of cell supernatants. The 96-well tray is sealed, shaken at room temperature overnight and measured for bound radioligand in a MicroBeta liquid scintillation counter (Wallac, Gaithersburg, Md.). The standard curve is determined for each experiment by performing a nonlinear regression (exponential decay) analysis of cpm measured for the cAMP standards vs. their log concentrations, and test sample values are determined by using Prism software (Graphpad Software Inc., San Diego, Calif.) and are shown in Table II and FIG. 1. FIG. I illustrates the antagonist activity of Peptide 1.
The intrinsic activity of an SRIF antagonist is the percent reversal of the SSTR2, activation by SRIF or MK678, wherein 0% is defined by cAMP levels in samples treated with forskolin plus SRIF or MK678 and 100% is the cAMP level measured after treatment with forskolin alone. Therefore, increased intrinsic activity of a test compound indicates increased antagonist activity of said test compound.
FIG. […]
An inverse agonist is a compound that is not only a pure antagonist (i.e. lacking agonist activity), but also blocks the constitutive activity of an unoccupied receptor. One indication of inverse agonist activity is the ability of a SRIF antagonist to increase cAMP levels in the absence of added SRIF. […]

CC(C)[C@@H]1NC(=O)[C@H](CCCCN)NC(=O)[C@@H](Cc2c[nH]c3ccccc23)NC(=O)[C@H](Cc2ccc(O)cc2)NC(=O)[C@@H](NC(=O)[C@H](N)Cc2ccc3ccccc3c2)CSSC[C@@H](C(=O)N[C@H](C(N)=O)[C@@H](C)O)NC1=O [BIM 23014C, reference compound]
SGH (Male Sprague-Dawley rats; 5 μg peptide 1 group, 10 μg BIM 23014C at 60 min, sample 75 min): 7.0 ng/mL
SGH (Male Sprague-Dawley rats; 5 μg peptide 1 group, 60 min (time of 10 μg BIM 23014C dose)): 11.4 ng/mL
serum GH levels after SRIF agonist (Male Sprague-Dawley rats; 10 μg at 60 minutes): induces the expected reduction in serum GH levels
SGH (Male Sprague-Dawley rats; 25 μg peptide 1 group, 10 μg BIM 23014C at 60 min, sample 75 min): 6.8 ng/mL
SGH (Male Sprague-Dawley rats; 25 μg peptide 1 group, 60 min (time of 10 μg BIM 23014C dose)): 13.1 ng/mL
SGH (Male Sprague-Dawley rats; 50 μg peptide 1 group, 10 μg BIM 23014C at 60 min, sample 75 min): 3.5 ng/mL
SGH (Male Sprague-Dawley rats; 50 μg peptide 1 group, 60 min (time of 10 μg BIM 23014C dose)): 17.1 ng/mL

CC[C@@H](C)[C@@H](NC(=O)[C@@H](Cc1ccccc1)NC(=O)[C@@H](Cc1c[nH]cn1)NC(C)=O)C(=O)N[C@H](CCCNC(=N)N)C(=O)N[C@H](Cc1c[nH]c2ccccc12)C(=O)N[C@H](C)C(N)=O [His Phe Ile Arg Trp Ala] (Ac-[dH][dF][dI][dR][dW][dA]-NH2)
Inhibition Zone [1]: 15 mm

CC[C@@H](C)[C@@H](NC(=O)[C@@H](Cc1ccccc1)NC(=O)[C@@H](Cc1c[nH]cn1)NC(C)=O)C(=O)N[C@H](CCCNC(=N)N)C(=O)N[C@H](Cc1c[nH]c2ccccc12)C(=O)N[C@H](CC(N)=O)C(N)=O [His Phe Ile Arg Trp Asn] (Ac-[dH][dF][dI][dR][dW][dN]-NH2)
Inhibition Zone [1]: 15 mm

CC[C@@H](C)[C@@H](NC(=O)[C@@H](Cc1ccccc1)NC(=O)[C@@H](Cc1c[nH]cn1)NC(C)=O)C(=O)N[C@H](CCCNC(=N)N)C(=O)N[C@H](Cc1c[nH]c2ccccc12)C(=O)N[C@H](CCC(N)=O)C(N)=O [His Phe Ile Arg Trp Gln] (Ac-[dH][dF][dI][dR][dW][dQ]-NH2)
Inhibition Zone [1]: 16 mm

CC[C@@H](C)[C@@H](NC(=O)[C@@H](Cc1ccccc1)NC(=O)[C@@H](Cc1c[nH]cn1)NC(C)=O)C(=O)N[C@H](CCCNC(=N)N)C(=O)N[C@H](Cc1c[nH]c2ccccc12)C(=O)NCC(N)=O [His Phe Ile Arg Trp Gly] (Ac-[dH][dF][dI][dR][dW]G-NH2)
Inhibition Zone [1]: 13 mm

CC[C@@H](C)[C@@H](NC(=O)[C@@H](Cc1c[nH]c2ccccc12)NC(=O)[C@@H](CCCNC(=N)N)NC(=O)[C@H](NC(=O)[C@@H](Cc1ccccc1)NC(=O)[C@@H](Cc1c[nH]cn1)NC(C)=O)[C@H](C)CC)C(N)=O [His Phe Ile Arg Trp Ile] (Ac-[dH][dF][dI][dR][dW][dI]-NH2)
Inhibition Zone [1]: 16 mm

CC[C@@H](C)[C@@H](NC(=O)[C@@H](Cc1ccccc1)NC(=O)[C@@H](Cc1c[nH]cn1)NC(C)=O)C(=O)N[C@H](CCCNC(=N)N)C(=O)N[C@H](Cc1c[nH]c2ccccc12)C(=O)N[C@H](CC(C)C)C(N)=O [His Phe Ile Arg Trp Leu] (Ac-[dH][dF][dI][dR][dW][dL]-NH2)
Inhibition Zone [1]: 15 mm

CC[C@@H](C)[C@@H](NC(=O)[C@@H](Cc1ccccc1)NC(=O)[C@@H](Cc1c[nH]cn1)NC(C)=O)C(=O)N[C@H](CCCNC(=N)N)C(=O)N[C@H](Cc1c[nH]c2ccccc12)C(=O)N[C@H](CCSC)C(N)=O [His Phe Ile Arg Trp Met] (Ac-[dH][dF][dI][dR][dW][dM]-NH2)
Inhibition Zone [1]: 18 mm

CC[C@@H](C)[C@@H](NC(=O)[C@@H](Cc1c[nH]cn1)NC(=O)[C@@H](Cc1c[nH]c2ccccc12)NC(C)=O)C(=O)N[C@H](CCCNC(=N)N)C(=O)N[C@H](Cc1c[nH]c2ccccc12)C(=O)N[C@H](Cc1ccccc1)C(N)=O [Peptide 22, w-h-i-r-w-f] (Ac-[dW][dH][dI][dR][dW][dF]-NH2)
Emax (rat SSTR2): 27.4%

CC[C@@H](C)[C@@H](NC(=O)[C@@H](Cc1ccc(O)cc1)NC(=O)[C@@H](Cc1c[nH]c2ccccc12)NC(C)=O)C(=O)N[C@H](CCCNC(=N)N)C(=O)N[C@H](Cc1c[nH]c2ccccc12)C(=O)N[C@H](Cc1ccccc1)C(N)=O [Peptide 23, w-y-i-r-w-f] (Ac-[dW][dY][dI][dR][dW][dF]-NH2)
Emax (rat SSTR2): 5.64%

CC[C@@H](C)[C@@H](NC(=O)[C@@H](Cc1c[nH]cn1)NC(=O)[C@@H](Cc1ccccc1)NC(C)=O)C(=O)N[C@H](CCCNC(=N)N)C(=O)N[C@H](Cc1c[nH]c2ccccc12)C(=O)N[C@H](Cc1ccccc1)C(N)=O [Peptide 24, f-h-i-r-w-f] (Ac-[dF][dH][dI][dR][dW][dF]-NH2)
Emax (rat SSTR2): 65.2%

CC[C@@H](C)[C@@H](NC(=O)[C@@H](CCCNC(=N)N)NC(=O)[C@@H](Cc1ccccc1)NC(C)=O)C(=O)N[C@H](CCCNC(=N)N)C(=O)N[C@H](Cc1c[nH]c2ccccc12)C(=O)N[C@H](Cc1ccccc1)C(N)=O [Peptide 25, f-r-i-r-w-f] (Ac-[dF][dR][dI][dR][dW][dF]-NH2)
Emax (rat SSTR2): 10.8%

CC[C@@H](C)[C@@H](NC(=O)[C@@H](Cc1ccccc1)NC(=O)[C@@H](Cc1c[nH]cn1)NC(C)=O)C(=O)N[C@H](CCCCN)C(=O)N[C@H](Cc1c[nH]c2ccccc12)C(=O)N[C@H](Cc1ccccc1)C(N)=O [Peptide 27, h-f-i-k-w-f] (Ac-[dH][dF][dI][dK][dW][dF]-NH2)
Emax (rat SSTR2): 71.2%

CC(=O)N[C@H](Cc1c[nH]cn1)C(=O)N[C@H](Cc1ccccc1)C(=O)N[C@@H](C(=O)N[C@H](CCCNC(=N)N)C(=O)N[C@H](Cc1c[nH]c2ccccc12)C(=O)N[C@H](Cc1ccccc1)C(N)=O)C(C)C [Peptide 28, h-f-v-r-w-f] (Ac-[dH][dF][dV][dR][dW][dF]-NH2)
Emax (rat SSTR2): 71.2%
